Experimental data reported in patent publication US20260217701A1, “SELECTIVE BET INHIBITORS AND USES THEREOF” (Tay Therapeutics Limited, priority 2022, published 2026).

Columns and labels:
[1] = tested on: idiopathic pulmonary fibrosis (bleomycin); assay: Bleomycin IPF model: oxygen saturation (pulse oximetry); format: in vivo, C57BI/6J mice; conditions: for Oxygen saturation levels: Bleo mice
Protocol: Male C57BI/6J mice, aged 12 weeks with an approximate weight of 25-30 g were obtained from Jackson Laboratories (Bar Harbor, ME). Animals were acclimated for two weeks prior to study initiation, and were randomized into the experimental groups outlined in Table 32.
Intratracheal (IT) administration of Bleo or PBS control was conducted at the start of the study (Day 0). […] Animals were weighed on Day 0, and indexed boluses of PBS control (Group 1) or Bleo (Groups 2-6) were delivered by IT administration.
Following administration of Bleo, animals (n=10/group) were included in the study if they met the following guidelines on Day 7: (1) a predictable 5% loss in body weight, and (2) the presence of fibrotic pulmonary lesions, detected by micro-CT imaging. 10 animals from Group 1 additionally proceeded as controls. Animals that continued in the study on Day 7 received an oral gavage (OG) administration of PBS, Compound A (1 mg/kg, 3 mg/kg, 10 mg/kg), or Pirfenidone (300 mg/kg), as outlined in Table 31 in 25 μL boluses every other day (QOD), starting on Day 7. Compound A was formulated in 5% (v/v) DMSO/15% (v/v) PEG 400/80% (v/v) E-TPGS in purified water.
Body weights were obtained at Day 0 at the start of the study, and again at Day 7 to determine if an animal continued in the study. Body weight was measured daily from Day 7 until Day 21, and oxygen saturation was measured by a pulse oximetry (MouseOx) system QOD from Day 7 until study completion on Day 21, and results were plotted and analyzed by Kaplan-Meier plots.

[2] = tested on: idiopathic pulmonary fibrosis (bleomycin); assay: Bleomycin IPF model: functional lung volume by micro-CT; format: in vivo, C57BI/6J mice; set-up: Functional Lung Volume, Mean: unit not given here; conditions: Day 21
Protocol: Animals were acclimated for two weeks prior to study initiation, and were randomized into the experimental groups outlined in Table 32. Intratracheal (IT) administration of Bleo or PBS control was conducted at the start of the study (Day 0). […] Following administration of Bleo, animals (n=10/group) were included in the study if they met the following guidelines on Day 7: […] Micro-CT imaging was also performed on Day 7 to determine relative fibrosis and on Day 21. […] Images were acquired with a respiratory gated technique with the following parameters: X-ray tube voltage: 90 KV; X-ray tube current: 88 μA; total scan time: 4 minutes. The system was calibrated monthly with standard phantoms for noise, uniformity, low contrast, and resolution to ensure consistency.

[3] = SLE (lupus) model: body weight; format: in vivo, MRL/MpJ-Faslpr mice
Protocol: Female MRL/MpJ-Faslpr mice (The Jackson Laboratory) were used to assess the efficacy of Compound A in treating lupus. Starting when animals were 10 weeks of age, protein concentration in urine was measured using urine dipsticks.
At the start of the study, each group in the study had two animals that were 9 weeks old, and all others were 10 weeks old. Dosing of all animals with the test compounds began when the older animals were 11 weeks old. […] […] Dosing was at a consistent time each dosing day throughout the study.
Compound A may be formulated as illustrated in Experimental Method A (see Table 2E.). […] A stock solution of Compound A in DMSO (stock solution concentration of Compound A of 40 mg/mL) was prepared and aliquots for weekly preparations were frozen at −20° C. On each preparation day, a stock solution aliquot was thawed and diluted with other vehicle components to the desired concentration. Formulated Compound A and vehicle were at room temperature for dosing.
The study began when the older animals were 11 weeks old, and concluded when the older animals were 19 weeks old. Body weight was recorded once a week, with the exception of two weight measurements taken the first week of the study (when the older animals were 11 weeks old). Proteinuria was measured in the urine of animals with urine dipsticks once a week, starting when the older animals were 10 weeks old. […] Blood samples were taken retro-orbitally at the start of the study to establish a baseline (15 animals, 3 per group), and when the older animals were 16 weeks (all animals) and when animals were 19 weeks (all animals) at the conclusion of the study. Blood urea nitrogen (BUN) was measured in all animals at study termination in blood samples. After blood collection, animals were euthanized, perfused with PBS, and the left kidneys were collected and weighed and fixed in 10% buffered formalin. Left kidneys were then processed to a formalin-fixed, paraffin-embedded (FFPE) block, and histology was analyzed in Periodic Acid-Schiff-stained sections (1 section per slide), using the criteria described in Alperovich et al., Lupus, 16:18-24 (2007). Right kidneys were weighed and snap-frozen at −80° C. Spleens were also collected and weighed. SLE in animals treated with a BET inhibitor and vehicle.

[4] = Rat PK study #4 (Compound A PO 0.2 and 1.0 mg/kg, propylene glycol formulation); format: in vivo, Lewis rats; conditions: 1 mg/kg and 10 mg/kg doses, rats

With Cn1cc(-c2ccccc2)c(-c2cn(C)c(=O)c3[nH]c(-c4cnn(C(F)(F)F)c4)cc23)cc1=O [Compound A, 6-methyl-4-(1-methyl-2-oxo-5-phenyl-1,2-dihydropyridin-4-yl)-2-(1-(trifluoromethyl)-1H-pyrazol-4-yl)-1,6-dihydro-7H-pyrrolo[2,3-c]pyridin-7-one] the “Recovery in oxygen saturation relative to IPF control group (Bleo+Saline)” value ([1]; 3 mg/kg and 10 mg/kg) was “significant recovery in oxygen saturation levels”, the “Mean Oxygen Saturation” value ([1]; Bleo + Compound A (1 mg/kg) OG QOD from D7, Day 7) was 80.6 and the “Mean Oxygen Saturation” value ([1]; Bleo + Compound A (1 mg/kg) OG QOD from D7, Day 9) was 84.25. For the same compound, the “Mean Oxygen Saturation” value ([1]; Bleo + Compound A (1 mg/kg) OG QOD from D7, Day 11) was 87.17, the “Mean Oxygen Saturation” value ([1]; Bleo + Compound A (1 mg/kg) OG QOD from D7, Day 13) was 88.03 and the “Mean Oxygen Saturation” value ([1]; Bleo + Compound A (1 mg/kg) OG QOD from D7, Day 15) was 88.58. The “Mean Oxygen Saturation” value ([1]; Bleo + Compound A (1 mg/kg) OG QOD from D7, Day 17) was 88.48, the “Mean Oxygen Saturation” value ([1]; Bleo + Compound A (1 mg/kg) OG QOD from D7, Day 19) was 89.87 and the “Mean Oxygen Saturation” value ([1]; Bleo + Compound A (1 mg/kg) OG QOD from D7, Day 21) was 87.67. The “Mean Oxygen Saturation” value ([1]; Bleo + Compound A (3 mg/kg) OG QOD from D7, Day 7) was 82.08, the “Mean Oxygen Saturation” value ([1]; Bleo + Compound A (3 mg/kg) OG QOD from D7, Day 9) was 83.77 and the “Mean Oxygen Saturation” value ([1]; Bleo + Compound A (3 mg/kg) OG QOD from D7, Day 11) was 85.05. The “Mean Oxygen Saturation” value ([1]; Bleo + Compound A (3 mg/kg) OG QOD from D7, Day 13) was 85.67, the “Mean Oxygen Saturation” value ([1]; Bleo + Compound A (3 mg/kg) OG QOD from D7, Day 15) was 85.97 and the “Mean Oxygen Saturation” value ([1]; Bleo + Compound A (3 mg/kg) OG QOD from D7, Day 17) was 89.18. The “Mean Oxygen Saturation” value ([1]; Bleo + Compound A (3 mg/kg) OG QOD from D7, Day 19) was 89.6, the “Mean Oxygen Saturation” value ([1]; Bleo + Compound A (3 mg/kg) OG QOD from D7, Day 21) was 89.88 and the “Mean Oxygen Saturation” value ([1]; Bleo + Compound A (10 mg/kg) OG QOD from D7, Day 7) was 82.75. The “Mean Oxygen Saturation” value ([1]; Bleo + Compound A (10 mg/kg) OG QOD from D7, Day 9) was 84.07, the “Mean Oxygen Saturation” value ([1]; Bleo + Compound A (10 mg/kg) OG QOD from D7, Day 11) was 86.87 and the “Mean Oxygen Saturation” value ([1]; Bleo + Compound A (10 mg/kg) OG QOD from D7, Day 13) was 87.5. For the same compound, the “Mean Oxygen Saturation” value ([1]; Bleo + Compound A (10 mg/kg) OG QOD from D7, Day 15) was 88.87, the “Mean Oxygen Saturation” value ([1]; Bleo + Compound A (10 mg/kg) OG QOD from D7, Day 17) was 89.23 and the “Mean Oxygen Saturation” value ([1]; Bleo + Compound A (10 mg/kg) OG QOD from D7, Day 19) was 92.22. The “Mean Oxygen Saturation” value ([1]; Bleo + Compound A (10 mg/kg) OG QOD from D7, Day 21) was 93.58, the Oxygen saturation levels ([1]; 3 mg/kg, Day 21) was “about 90%” and the Oxygen saturation levels ([1]; 10 mg/kg, Day 21) was “about 93.6%”. For the same compound, the “Improvement of oxygen saturation versus pirfenidone” value ([1]; IPF model) was “superior to pirfenidone in improving oxygen saturation”, the “Functional Lung Volume, Mean” value ([2]; Bleo + Compound A (1 mg/kg) OG QOD from D7) was 283.165 and the “Functional Lung Volume, Mean” value ([2]; Bleo + Compound A (3 mg/kg) OG QOD from D7) was 343.5975. For the same compound, the “Functional Lung Volume, Mean” value ([2]; Bleo + Compound A (10 mg/kg) OG QOD from D7) was 452.7838, the “Mean improvement in functional lung volume compared to Group 2” value ([2]; Group 5, 10 mg/kg) was ~52.7% and the “Relative end body weight (% of Week 11) ± SEM” value ([3]; 1 mg/kg) was 114.5% ± 1.5%. The “Weight gain relative to control groups” value ([3]; 1 mg/kg and 10 mg/kg) was “improved weight gains relative to the control groups”, the “Relative end body weight (% of Week 11) ± SEM” value ([3]; 3 mg/kg) was 110.7% ± 2.1% and the “Relative end body weight (% of Week 11) ± SEM” value ([3]; 10 mg/kg) was 114.4% ± 1.6%. For the same compound, the Mean Body Weight ([3]; Compound A 1 mg/kg PO QD, Week 11) was 35.2 g, the Mean Body Weight ([3]; Compound A 1 mg/kg PO QD, Week 12) was 36.4 g and the Mean Body Weight ([3]; Compound A 1 mg/kg PO QD, Week 13) was 37.6 g. It also gave a Mean Body Weight ([3]; Compound A 1 mg/kg PO QD, Week 14) of 38.5 g, a Mean Body Weight ([3]; Compound A 1 mg/kg PO QD, Week 15) of 38.9 g and a Mean Body Weight ([3]; Compound A 1 mg/kg PO QD, Week 16) of 40.0 g. It also gave a Mean Body Weight ([3]; Compound A 1 mg/kg PO QD, Week 17) of 39.5 g, a Mean Body Weight ([3]; Compound A 1 mg/kg PO QD, Week 18) of 39.7 g and a Mean Body Weight ([3]; Compound A 1 mg/kg PO QD, Week 19) of 40.2 g. For the same compound, the Mean Body Weight ([3]; Compound A 3 mg/kg PO QD, Week 11) was 35.0 g, the Mean Body Weight ([3]; Compound A 3 mg/kg PO QD, Week 12) was 35.0 g and the Mean Body Weight ([3]; Compound A 3 mg/kg PO QD, Week 13) was 36.5 g. For the same compound, the Mean Body Weight ([3]; Compound A 3 mg/kg PO QD, Week 14) was 37.4 g, the Mean Body Weight ([3]; Compound A 3 mg/kg PO QD, Week 15) was 37.9 g and the Mean Body Weight ([3]; Compound A 3 mg/kg PO QD, Week 16) was 38.7 g. It also gave a Mean Body Weight ([3]; Compound A 3 mg/kg PO QD, Week 17) of 38.6 g, a Mean Body Weight ([3]; Compound A 3 mg/kg PO QD, Week 18) of 38.1 g and a Mean Body Weight ([3]; Compound A 3 mg/kg PO QD, Week 19) of 38.6 g. It also gave a Mean Body Weight ([3]; Compound A 10 mg/kg PO QD, Week 11) of 35.1 g, a Mean Body Weight ([3]; Compound A 10 mg/kg PO QD, Week 12) of 35.6 g and a Mean Body Weight ([3]; Compound A 10 mg/kg PO QD, Week 13) of 37.1 g. It also gave a Mean Body Weight ([3]; Compound A 10 mg/kg PO QD, Week 14) of 37.8 g, a Mean Body Weight ([3]; Compound A 10 mg/kg PO QD, Week 15) of 38.8 g and a Mean Body Weight ([3]; Compound A 10 mg/kg PO QD, Week 16) of 39.3 g. The Mean Body Weight ([3]; Compound A 10 mg/kg PO QD, Week 17) was 39.3 g, the Mean Body Weight ([3]; Compound A 10 mg/kg PO QD, Week 18) was 39.4 g and the Mean Body Weight ([3]; Compound A 10 mg/kg PO QD, Week 19) was 39.9 g. For the same compound, the “duration of exposure above the free EC50 BD2 BRD4” value [4] was 24 h.
